Measurements reported in patent US20160235806A1, “Novel Peptide Compound for Inhibiting Restenosis and Promoting Re-Endothelialization and Method for Preparing the Same” (Chonnam National University Hospital, priority 2014, published 2016).

Test system: vascular smooth muscle cell (SMC)
Assay: Effect on proliferation of vascular smooth muscle cell (SMC), XTT assay
Assay type: cell-based
Conditions: 1 uM; 1, 4, and 7 days; vs non-treated control that continuously grew until 7 days
Procedure: As cells used in a cell culture, the vascular smooth muscle cell (SMC) which is a smooth muscle cell, and the human umbilical vein endothelial cell (HUVEC) which is the cell for promoting vascular re-endothelialization were purchased from Korea Cell Line Bank, respectively. The cell culture was performed by culturing the vascular smooth muscle cell (SMC) and the human umbilical vein endothelial cell (HUVEC) in Dulbecoco's modified eagle medium (DMEM) with 10% fetal bovine serum (FBS) under conditions of 37° C. and 5% CO2. […]
(§1) 5×10^4 of SMC cells cultured according to Example 2 were cultured in the 24-well cell culture plate and then treated with 1 uM of the peptide compound prepared by Example 2 (hereinafter, referred to as ‘EVR-P’). […] After the reaction, 200 ul of the culture medium was transferred from each well to a 96 well cell culture dish, and degree of color change was measured from absorbance at a 450 nm wavelength by a spectroscopy.
as §1, with “the known Everolimus (EVR)(LC Laboratories).” for “the peptide compound prepared by Example 2 (hereinafter, referred to as ‘EVR-P’).”, “to the” for “to a”

With `CO[C@H]1C[C@@H]2CC[C@@H](C)[C@@](O)(O2)C(=O)C(=O)N2CCCC[C@H]2C(=O)O[C@H]([C@H](C)C[C@@H]2CC[C@@H](OCCO)[C@H](OC)C2)CC(=O)[C@H](C)/C=C(\C)[C@@H](O)[C@@H](OC)C(=O)[C@H](C)C[C@H](C)/C=C/C=C/C=C/1C` [EVR, Everolimus] the “SMC cell proliferation (XTT, absorbance at 450 nm)” value was “cell proliferation was inhibited”.
